The values that follow come from patent US20080063679A1, “NANOCOMPOSITES WITH RESIDUAL BIOCIDAL AND BIOSTATIC PROPERTIES” (Quartek Corporation, priority 2006, published 2008).

Series [1] deals with G+ & G−. As to the kind of experiment: Bactericidal effectiveness, comparison table. It counts as cell-based. The settings on record: Table 1. From the text: (§1) Current antimicrobials have a short life with no residual effect. They lose there effectiveness in high protein environment. Certain bacteria developed resistance. They are toxic or cause irritations. Some are highly corrosive.

Series [2] has as its system fungi. In words: Fungicidal effectiveness, comparison table. As to conditions: Table 1. It counts as cell-based.
Description: as §1

Series [3] deals with spores. In words: Sporicidal effectiveness, comparison table. The class given is cell-based. As to conditions: Table 1.
Description: as §1

Series [4] is described as follows: Minimum inhibitory concentration (MIC), comparison of biocidal nanocomposites and existing decontaminants. The class given is cell-based. The settings on record: Table 1.
Description: as §1

Description in series [5]: as §1

Structures are written as SMILES. ≈ marks a conversion by molar mass, not a printed value.

For the molecule `OCl` [Hypochlorite], in series [1], the “Effectiveness Bactericidal (G+ & G−)” value is listed as “very good”. For the same molecule, the “Effectiveness Fungicidal” value in series [2] is given as “good”. Besides, the “Effectiveness Sporicidal” value in series [3] is recorded as “no/fair”. The “Minimum inhibitory concentration (MIC)” value in series [4] was 150 mg/L (≈ 2860 µM). Also, in series [5], the Non-corrosive result was “no”. In series [5] (Table 1), the Contact time was 1 to 30 min, the “Effective in hard water” value was “poor”, the Effective in organics entry was “poor” and the Effective in soap result is “yes”. Further, in series [5] (Table 1), the Residual activity result was “poor”.
